Measured values from PubChem BioAssay AID248 (DTP/NCI, 2004).
“And” between values parts separate entries of the source, which are not always exact repeats. Identical values can stand only once. Toxic doses and inconclusive results are not listed. No stated cut-off is given here; in the data, active means T/C of 150% or more; inactive means T/C below 125%.

Tested on: L1210 leukemia ip in BDF1 mice, survival T/C
Assay: NCI In Vivo Anticancer Drug Screen. Data for tumor model L1210 Leukemia (intraperitoneal) in B6D2F1 (BDF1) mice
Settings: endpoint: mean survival time, higher = longer survival
Procedure, shortened: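 Read-out is survival time, reported as the treated-group measurement over the vehicle-control measurement.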

[1] = dose: 100.0 mg/kg/injection, schedule: Q01DX001 (ip), vehicle: saline with Tween-80
[2] = dose: 200.0 mg/kg/injection, schedule: Q01DX001 (ip), vehicle: saline with Tween-80
[3] = dose: 100.0 mg/kg/injection, schedule: Q01DX009 (ip), vehicle: saline with Tween-80
[4] = dose: 200.0 mg/kg/injection, schedule: Q01DX009 (ip), vehicle: saline with Tween-80
[5] = dose: 400.0 mg/kg/injection, schedule: Q01DX009 (ip), vehicle: saline with Tween-80
[6] = dose: 100.0 mg/kg/injection, schedule: Q04DX002 (ip), vehicle: saline with Tween-80
[7] = dose: 200.0 mg/kg/injection, schedule: Q04DX002 (ip), vehicle: saline with Tween-80
[8] = dose: 100.0 mg/kg/injection, schedule: Q04DX003 (ip), vehicle: Klucel (hydroxypropylcellulose) (HPC)
[9] = dose: 200.0 mg/kg/injection, schedule: Q04DX003 (ip), vehicle: Klucel (hydroxypropylcellulose) (HPC)
[10] = dose: 200.0 mg/kg/injection, schedule: Q01DX009 (ip), vehicle: Klucel (hydroxypropylcellulose) (HPC)
[11] = dose: 400.0 mg/kg/injection, schedule: Q01DX009 (ip), vehicle: Klucel (hydroxypropylcellulose) (HPC)
[12] = dose: 400.0 mg/kg/injection, schedule: Q04DX003 (ip), vehicle: Klucel (hydroxypropylcellulose) (HPC)
[13] = dose: 100.0 mg/kg/injection, schedule: Q01DX009 (ip), vehicle: Klucel (hydroxypropylcellulose) (HPC)
[14] = dose: 100.0 mg/kg/injection, schedule: Q04DX003 (ip), vehicle: saline with Tween-80
[15] = dose: 200.0 mg/kg/injection, schedule: Q04DX003 (ip), vehicle: saline with Tween-80

Measured: T/C

Cn1c(=S)[nH]c2cn[nH]c2c1=O
inactive: [1] 93 % of control | [2] 97 % of control | dose: 400.0 mg/kg/injection, schedule: Q01DX001 (ip), vehicle: saline with Tween-80 89 % of control

O=C(CCN1CCCCC1)c1ccccc1
inactive: dose: 5.0 mg/kg/injection, schedule: Q04DX003 (ip), vehicle: saline 96 % of control | dose: 10.0 mg/kg/injection, schedule: Q04DX003 (ip), vehicle: saline 103 % of control | dose: 20.0 mg/kg/injection, schedule: Q04DX003 (ip), vehicle: saline 94 % of control

Cc1ccc(CCCC(=O)O)c(C)c1
inactive: [3] 105 % of control | [4] 92 % of control | [5] 96 % of control

CCCCCCC/C(=N\N=C(N)N)c1ccc(O)cc1
inactive: dose: 15.0 mg/kg/injection, schedule: Q01DX Z (ip), vehicle: carboxymethylcellulose (CMC) 93 % of control | dose: 15.0 mg/kg/injection, schedule: Q01DX Z (oral), vehicle: carboxymethylcellulose (CMC) 117 % of control | dose: 30.0 mg/kg/injection, schedule: Q01DX Z (ip), vehicle: carboxymethylcellulose (CMC) 87 % of control | dose: 30.0 mg/kg/injection, schedule: Q01DX Z (oral), vehicle: carboxymethylcellulose (CMC) 106 % of control | dose: 60.0 mg/kg/injection, schedule: Q01DX Z (oral), vehicle: carboxymethylcellulose (CMC) 97 % of control and 103 % of control | dose: 120.0 mg/kg/injection, schedule: Q01DX Z (oral), vehicle: carboxymethylcellulose (CMC) 112 % of control and 90 % of control | dose: 240.0 mg/kg/injection, schedule: Q01DX Z (oral), vehicle: carboxymethylcellulose (CMC) 94 % of control and 95 % of control | dose: 480.0 mg/kg/injection, schedule: Q01DX Z (oral), vehicle: carboxymethylcellulose (CMC) 88 % of control and 90 % of control

CC(CBr)C(=O)O (centres undefined)
inactive: [6] 97 % of control | [7] 97 % of control

O=C(NCCCl)Nc1cccc2c1CCC2
inactive: [8] 93 % of control | [9] 86 % of control

Nc1ccc(S(=O)(=O)Nc2ccc([N+](=O)[O-])cn2)cc1
inactive: dose: 100.0 mg/kg/injection, schedule: Q01DX001 (ip), vehicle: saline 101 % of control | dose: 200.0 mg/kg/injection, schedule: Q01DX001 (ip), vehicle: saline 104 % of control | dose: 400.0 mg/kg/injection, schedule: Q01DX001 (ip), vehicle: saline 98 % of control

COCP(=O)(O)O
inactive: dose: 100.0 mg/kg/injection, schedule: Q04DX002 (ip), vehicle: saline 96 % of control | dose: 200.0 mg/kg/injection, schedule: Q04DX002 (ip), vehicle: saline 100 % of control

Cc1ccc(C=C2c3ccccc3-c3ccccc32)cc1
inactive: dose: 12.5 mg/kg/injection, schedule: Q04DX002 (ip), vehicle: gum acacia 120 % of control | dose: 25.0 mg/kg/injection, schedule: Q04DX002 (ip), vehicle: gum acacia 88 % of control | dose: 50.0 mg/kg/injection, schedule: Q04DX002 (ip), vehicle: gum acacia 98 % of control

O=C(CCCCC(=O)N=C(c1ccccc1)c1ccccc1)N=C(c1ccccc1)c1ccccc1
inactive: dose: 222.0 mg/kg/injection, schedule: Q01DX Z (ip), vehicle: methylcellulose (MC) 93 % of control | dose: 333.0 mg/kg/injection, schedule: Q01DX Z (ip), vehicle: methylcellulose (MC) 98 % of control | dose: 500.0 mg/kg/injection, schedule: Q01DX Z (ip), vehicle: methylcellulose (MC) 97 % of control

Cc1ccccc1/[N+]([O-])=C/c1ccccc1
inactive: dose: 100.0 mg/kg/injection, schedule: Q01DX001 (ip), vehicle: Klucel (hydroxypropylcellulose) (HPC) 104 % of control | [8] 103 % of control | dose: 200.0 mg/kg/injection, schedule: Q01DX001 (ip), vehicle: Klucel (hydroxypropylcellulose) (HPC) 104 % of control | [10] 93 % of control | [9] 102 % of control | dose: 400.0 mg/kg/injection, schedule: Q01DX001 (ip), vehicle: Klucel (hydroxypropylcellulose) (HPC) 101 % of control | [11] 104 % of control | [12] 102 % of control

O=C1C(=O)c2ccccc2C(O)=C1CN1CCC1
inactive: [1] 95 % of control | [2] 95 % of control

CCOC(=O)c1cnc(SC)nc1NCCc1ccccc1
inactive: [13] 98 % of control | [10] 91 % of control | [11] 95 % of control

CC(=O)[O][Hg][c]1s[c]([Hg][O]C(C)=O)[c]([Hg][O]C(C)=O)[c]1[Hg][O]C(C)=O
inactive: dose: 6.25 mg/kg/injection, schedule: Q04DX003 (ip), vehicle: Klucel (hydroxypropylcellulose) (HPC) 104 % of control | dose: 12.5 mg/kg/injection, schedule: Q04DX003 (ip), vehicle: Klucel (hydroxypropylcellulose) (HPC) 102 % of control | dose: 25.0 mg/kg/injection, schedule: Q04DX003 (ip), vehicle: Klucel (hydroxypropylcellulose) (HPC) 95 % of control | dose: 50.0 mg/kg/injection, schedule: Q04DX003 (ip), vehicle: Klucel (hydroxypropylcellulose) (HPC) 101 % of control

CC1(C)Cc2cc3ccccc3nc2-c2ccccc21
inactive: dose: 25.0 mg/kg/injection, schedule: Q01DX009 (ip), vehicle: saline with Tween-80 97 % of control | dose: 50.0 mg/kg/injection, schedule: Q01DX009 (ip), vehicle: saline with Tween-80 97 % of control | [3] 94 % of control

NNc1ccc(C(=O)O)cc1
inactive: [13] 100 % of control | [3] 98 % of control and 101 % of control | [8] 102 % of control | [14] 100 % of control and 101 % of control | [10] 96 % of control | [4] 93 % of control and 95 % of control | [9] 91 % of control | [15] 96 % of control and 108 % of control | [11] 100 % of control | [5] 117 % of control and 91 % of control | [12] 96 % of control | dose: 400.0 mg/kg/injection, schedule: Q04DX003 (ip), vehicle: saline with Tween-80 94 % of control and 96 % of control

CCOc1ncnc2c1ncn2-c1cccc(C)c1
inactive: dose: 50.0 mg/kg/injection, schedule: Q01DX001 (ip), vehicle: carboxymethylcellulose (CMC) 98 % of control | dose: 100.0 mg/kg/injection, schedule: Q01DX001 (ip), vehicle: carboxymethylcellulose (CMC) 110 % of control | dose: 200.0 mg/kg/injection, schedule: Q01DX001 (ip), vehicle: carboxymethylcellulose (CMC) 101 % of control | dose: 400.0 mg/kg/injection, schedule: Q01DX001 (ip), vehicle: carboxymethylcellulose (CMC) 98 % of control

Nc1ccccc1SC1CC(=O)N(c2cccc(Cl)c2)C1=O (centres undefined)
inactive: [13] 91 % of control | [8] 94 % of control | [10] 92 % of control | [9] 95 % of control | [11] 91 % of control | [12] 94 % of control

O=C1C(=O)C(CCc2ccccc2)C(=O)/C1=C\c1ccccc1 (centres undefined)
inactive: [14] 95 % of control | [15] 86 % of control

[N-]=[N+]=NC(c1ccccc1)(c1ccccc1)c1ccccc1
inactive: [6] 97 % of control | [7] 97 % of control | dose: 400.0 mg/kg/injection, schedule: Q04DX002 (ip), vehicle: saline with Tween-80 97 % of control
